Measured values taken from patent US11345711B2, “8,9-dihydroimidazo[1,2-a]pyrimido[5,4-e]pyrimidin-5(6H)-ones” (IMPACT THERAPEUTICS (SHANGHAI), INC, priority 2016, dated 2022).

Tests used:
Wee1 (h) = Wee1 (h) (Homo sapiens, UniProt P30291); experiment: Wee1 kinase (h) detection method, [γ-33P]-ATP filter assay; assay type: biochemical
Method: Determination of the inhibitory effect of 6-(2-chlorophenyl)-2-((4-(4-methylpiperazin-1-yl)phenyl)amino)-8,9-dihydroimidazo[1,2-a]pyrimido[5,4-e]pyrimidin-5(6H)-one and Analogs on the Enzyme Activity of Wee1 Kinase by Using the Wee1 Kinase (h) Detection Method
Then the stock solution of all compounds under test with 50× concentration in 100% DMSO was added to make the final concentration of 10/1/0.1/0.01 μM, and then mixed the mixture well. The reaction is initiated by the addition of the Mg/ATP mix. After incubation for 40 minutes at room temperature, the reaction is stopped by the addition of phosphoric acid to a concentration of 0.5%. […] Each compound sample is duplicated in duplicate. The negative control was lack of all the components of Wee1 enzyme, and the positive was addition of 30% phosphoric acid to terminate the reaction. The Wee1 inhibitor AZD1775 was detected at 10 μM at the same experiment condition.

LoVo cells = experiment: MTT based cell viability assay on LoVo cells; conditions: Homo sapiens, LoVo, 72 h, 3 d, read-out: IC50, growth inhibition of LoVo cells
Method: Determination of the cell growth inhibiting activity of 6-(2-chlorophenyl)-2-((4-(4-methylpiperazin-1-yl)phenyl)amino)-8,9-dihydroimidazo[1,2-a]pyrimido[5,4-e]pyrimidin-5(6H)-one and analogs on LoVo cells using a MTT based cell viability assay
(§1) The thawed LoVo cells were cultured and passaged to the third generation, and the growth state was good and the confluence was about 90%, which began to be used in the experiment. The LoVo cells were digested with trypsin, centrifuged at 800 rpm for 5 min, the supernatant was discarded, resuspended with fresh culture medium, and counted. 6000 Cells are seeded to each well of a 96-well plate. The cells are incubated at 37° C. in a 5% CO2 cell culture incubator overnight. The tested sample (including the tested compound and the reference compound AZD1775) was diluted continuously to 8 concentrations (the last concentration was negative control of DMSO) with a 1:3 and 1:10 dilution in DMSO respectively: 10 μM, 3.3 μM, 1 μM, 0.33 μM, 0.1 μM, 0.033 μM, 0.01 μM, 0 μM (the final concentration of DMSO was 1%). 5 μL of each concentration was added to 120 μL of culture medium (25 times diluted), and the mixture was shaken well. The overnight cells were taken and the culture medium was removed, 195 μL of fresh culture medium was added to each well, and 5 μL of diluted culture medium containing the corresponding concentration of the tested sample was added respectively, and the culture plate was then placed in the 5% CO2 cell culture incubator at 37° C. for 3 d. After removing the original solution and adding 100 μL of fresh serum-free DMEM culture medium containing MTT (0.5 mg/mL) per well, the culture was continued. The original solution was removed after 4 hrs and 100 μl DMSO was added to each well. The 96-well cell culture plates were shaken away from light for 10 min and readed in a multifunctional reader at 552/630/690 nm to give absorption values (OD values). The data were analyzed using a commercial graphic software (Graph Pad Prism 5.0) and the inhibitory activity of the compound on cell proliferation was plotted in terms of cell survival and compound concentration. The IC50 values were fitted by the S-shaped dose-response curve equation as follows: Y=100/(1+10^(Log C-Log IC50)), where C was the concentration of testing compounds.

NCI-H1299 cells = experiment: MTT based cell viability assay on NCI-H1299 cells; conditions: Homo sapiens, NCI-H1299 cells, read-out: IC50, growth inhibition of NCI-H1299 cells
Method: Determination of the cell growth inhibiting activity of 6-(2-chlorophenyl)-2-((4-(4-methylpiperazin-1-yl)phenyl)amino)-8,9-dihydroimidazo[1,2-a]pyrimido[5,4-e]pyrimidin-5(6H)-one and analogs on NCI-H1299 cells using a MTT based cell viability assay
as §1, with “NCI-H1299” for “LoVo”, “group,” for “medium,”, “1000” for “6000”, “1‰).” for “1%).”, “C−Log” for “C-Log”

Chain of Wee1 (h) (P30291 whole entry): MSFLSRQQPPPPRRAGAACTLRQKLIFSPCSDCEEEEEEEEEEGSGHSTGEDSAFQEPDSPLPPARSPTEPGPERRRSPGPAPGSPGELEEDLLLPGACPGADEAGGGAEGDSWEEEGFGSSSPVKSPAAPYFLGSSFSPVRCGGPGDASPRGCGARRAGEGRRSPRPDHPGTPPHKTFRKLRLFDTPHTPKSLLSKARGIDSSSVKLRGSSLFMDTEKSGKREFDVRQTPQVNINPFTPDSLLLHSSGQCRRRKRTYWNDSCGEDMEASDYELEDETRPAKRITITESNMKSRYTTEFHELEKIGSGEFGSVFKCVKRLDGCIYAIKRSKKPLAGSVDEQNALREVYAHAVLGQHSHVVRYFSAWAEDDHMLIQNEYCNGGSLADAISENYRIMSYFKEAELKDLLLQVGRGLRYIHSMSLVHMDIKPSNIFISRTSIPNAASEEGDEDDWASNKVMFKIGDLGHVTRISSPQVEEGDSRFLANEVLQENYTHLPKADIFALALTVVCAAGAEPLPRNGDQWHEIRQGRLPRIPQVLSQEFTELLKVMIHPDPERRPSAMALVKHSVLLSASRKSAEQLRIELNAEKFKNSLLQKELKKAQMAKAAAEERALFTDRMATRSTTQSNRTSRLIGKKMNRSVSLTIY

| SMILES | Inh. (%) of Wee1 kinase enzyme activity (Wee1 (h); C 1 μm compound) [%] | IC50 (LoVo cells) [nM] | IC50 (NCI-H1299 cells) [nM] | Inh. (%) of Wee1 kinase enzyme activity (Wee1 (h); C 0.01 μm compound) [%] | Inh. (%) of Wee1 kinase enzyme activity (Wee1 (h); C 0.1 μm compound) [%] |
| --- | --- | --- | --- | --- | --- |
| CN1CCN(c2ccc(Nc3ncc4c(n3)N3C(=NCC3(C)C)N(c3c(F)cccc3Cl)C4=O)cc2)CC1 [Example 28, 6-(2-Chloro-6-fluorophenyl)-9,9-dimethyl-2-((4-(4-methylpiperazin-1-yl)phenyl)amino)-8,9-dihydroimidazo[1,2-a]pyrimido[5,4-e]pyrimidin-5(6H)-one] | 67 | > 1000 | > 3000 | – | – |
| C[C@@H]1CN(c2ccc(Nc3ncc4c(n3)N3CCN=C3N(c3c(F)cccc3Cl)C4=O)cc2)C[C@H](C)O1 [Example 32, 6-(2-Chloro-6-fluorophenyl)-2-((4-((2S,6R)-2,6-dimethylmorpholino)phenyl)amino)-8,9-dihydroimidazo[1,2-a]pyrimido[5,4-e]pyrimidin-5(6H)-one] | 94 | 836 | > 10000 | 19 | 69 |
| O=C1c2cnc(Nc3ccc(CN4CCOCC4)cc3)nc2N2CCN=C2N1c1c(F)cccc1Cl [Example 33, 6-(2-Chloro-6-fluorophenyl)-2-((4-(morpholinomethyl)phenyl)amino)-8,9-dihydroimidazo[1,2-a]pyrimido[5,4-e]pyrimidin-5(6H)-one] | 87 | > 100000 | > 10000 | – | – |
| CN1CCN(c2ccc(Nc3ncc4c(n3)N3CCN=C3N(c3c(F)cccc3Cl)C4=O)c(Cl)c2)CC1 [Example 38, 6-(2-Chloro-6-fluorophenyl)-2-((2-chloro-4-(4-methylpiperazin-1-yl)phenyl)amino)-8,9-dihydroimidazo[1,2-a]pyrimido[5,4-e]pyrimidin-5(6H)-one] | 34 | > 100000 | > 10000 | – | – |

The remaining lines, values ahead:

| Inh. (%) of Wee1 kinase enzyme activity (Wee1 (h); C 1 μm compound) [%] | IC50 (LoVo cells) [nM] | IC50 (NCI-H1299 cells) [nM] | Inh. (%) of Wee1 kinase enzyme activity (Wee1 (h); C 0.01 μm compound) [%] | Inh. (%) of Wee1 kinase enzyme activity (Wee1 (h); C 0.1 μm compound) [%] | SMILES |
| --- | --- | --- | --- | --- | --- |
| 97 | 349 | 468 | 38 | 93 | C[C@@H]1CN(c2ccc(Nc3ncc4c(n3)N3CCN=C3N(c3c(F)cccc3Cl)C4=O)cc2)C[C@H](C)N1C [Example 34, 6-(2-Chloro-6-fluorophenyl)-2-((4-((3S,5R)-3,4,5-trimethylpiperazin-1-yl)phenyl)amino)-8,9-dihydroimidazo[1,2-a]pyrimido[5,4-e]pyrimidin-5(6H)-one] |
| 100 | 262 | 287 | 27 | 82 | CC(C)N1[C@H](C)CN(c2ccc(Nc3ncc4c(n3)N3CCN=C3N(c3c(F)cccc3Cl)C4=O)cc2)C[C@@H]1C [Example 35, 6-(2-Chloro-6-fluorophenyl)-2-((4-((3S,5R)-4-isopropyl-3,5-dimethylpiperazin-1-yl)phenyl)amino)-8,9-dihydroimidazo[1,2-a]pyrimido[5,4-e]pyrimidin-5(6H)-one] |
| 0 | > 100000 | > 10000 | – | – | CN1CCN(c2ccc(Nc3ncc4c(n3)N3CCN=C3N(c3c(F)cccc3Cl)C4=O)c(F)c2)CC1 [Example 36, 6-(2-Chloro-6-fluorophenyl)-2-((2-fluoro-4-(4-methylpiperazin-1-yl)phenyl)amino)-8,9-dihydroimidazo[1,2-a]pyrimido[5,4-e]pyrimidin-5(6H)-one] |
| 1 | > 100000 | > 10000 | – | – | C[C@@H]1CN(c2ccc(Nc3ncc4c(n3)N3CCN=C3N(c3c(F)cccc3Cl)C4=O)c(F)c2)C[C@H](C)N1C [Example 37, 6-(2-Chloro-6-fluorophenyl)-2-((2-fluoro-4-((3S,5R)-3,4,5-trimethylpiperazin-1-yl)phenyl)amino)-8,9-dihydroimidazo[1,2-a]pyrimido[5,4-e]pyrimidin-5(6H)-one] |
